Source: US10130633B2, “Compounds” (BAYER PHARMA AKTIENGESELLSCHAFT, priority 2013, dated 2018)

Key:
[1] = test system: constitutive active colorectal cancer cell (CRC) Wnt pathway; experiment: HCT116 TOPFlash cellular reporter assay (Super TopFlash luciferase), constitutive active Wnt pathway; format: cell-based; details: HCT116 TOP reporter cells, 36 hours incubation, luciferase expression
Procedure: In order to discover and characterize small molecules which inhibit the constitutive active colorectal cancer cell (CRC) Wnt pathway, a cellular reporter assay was employed. […] Stable transfectants were generated by cotransfection with pcDNA3 and selection of stable transfected cells with 1 mg/ml G418.

[2] = test system: HCT116 FOP control reporter cell line; experiment: HCT116 FOPFlash control reporter assay (FOP control vector, non-functional TCF elements); format: cell-based; details: HCT116 FOP control reporter cells, 36 hours incubation, luciferase expression
Source text: In a parallel approach, HCT116 cells were cotransfected with the FOP control vector and pcDNA3. The FOP vector is identical to the TOP construct, but it contains instead of functional TCF elements a randomized, non-functional sequence. For this transfection a stable transfected cell line was generated as well.

IC50 ([1]; Homo sapiens, HCT-116, 36 h) [nM]	IC50 ([2]; Homo sapiens, HCT-116, 36 h) [nM]	IC50 [1] [nM]	IC50 [2] [nM]	Structure (SMILES)
365	≥ 50000			COc1cccc(-c2nnc(NC(=O)c3ccc(OC(F)(F)F)c(NC(=O)CN4CCN(C)CC4)c3)s2)c1 [Example 146, N-[5-(3-methoxyphenyl)-1,3,4-thiadiazol-2-yl]-3-{[(4-methylpiperazin-1-yl)acetyl]amino}-4-(trifluoromethoxy)benzamide]
508	≥ 50000			O=C(Nc1nnc(-c2ccccc2)s1)c1ccc(F)c(NC(=O)C2(N3CCOCC3)CC2)c1 [Example 78, 4-fluoro-3-({[1-(morpholin-4-yl)cyclopropyl]carbonyl}amino)-N-(5-phenyl-1,3,4-thiadiazol-2-yl)benzamide]
	36500	87.6		CC(C(=O)Nc1cc(NC(=O)c2ccc(-c3ccccc3F)nc2)ccc1OC(F)(F)F)N1CCOCC1 (centres unmarked) [Example 206, 6-(2-fluorophenyl)-N-[3-{[2-(morpholin-4-yl)propanoyl]amino}-4-(trifluoromethoxy)phenyl] nicotinamide]
542	≥ 50000			COCCNC(=O)c1ccc(C(=O)Nc2nnc(-c3ccccc3)s2)cc1NC(=O)CN1CCOCC1 [Example 156, N^1-(2-methoxyethyl)-2-[(morpholin-4-ylacetyl)amino]-N^4-(5-phenyl-1,3,4-thiadiazol-2-yl)terephthalamide]
		192	31000	CC(C(=O)Nc1cc(C(=O)Nc2ccc(-c3ccccc3F)nc2)ccc1OC(F)(F)F)N1CCN(C2CC2)CC1 (centres unmarked) [Example 250, 3-{[2-(4-cyclopropylpiperazin-1-yl)propanoyl]amino}-N-[6-(2-fluorophenyl)pyridin-3-yl]-4-(trifluoromethoxy)benzamide]
		198	38000	CC(C(=O)Nc1cc(C(=O)Nc2ccc(-c3ccccc3F)nc2)ccc1OC(F)(F)F)N1CCN(C2CC2)CC1 (centres unmarked) [Example 249, 3-{[2-(4-cyclopropylpiperazin-1-yl)propanoyl]amino}-N-[6-(2-fluorophenyl)pyridin-3-yl]-4-(trifluoromethoxy)benzamide]
365	≥ 50000			CN1CCN(CC(=O)Nc2cc(C(=O)Nc3nnc(-c4cccc(C#N)c4)s3)ccc2OC(F)(F)F)CC1 [Example 267, N-[5-(3-cyanophenyl)-1,3,4-thiadiazol-2-yl]-3-{[(4-methylpiperazin-1-yl)acetyl]amino}-4-(trifluoromethoxy)benzamide]
76	≥ 50000			CN1CCN(CC(=O)Nc2cc(C(=O)Nc3nnc(-c4ccccc4F)s3)ccc2OC(F)(F)F)CC1 [Example 150, N-[5-(2-fluorophenyl)-1,3,4-thiadiazol-2-yl]-3-{[(4-methylpiperazin-1-yl)acetyl]amino}-4-(trifluoromethoxy)benzamide]
320	≥ 50000			O=C(CN1CCN(C2CC2)CC1)Nc1cc(C(=O)Nc2nnc(-c3ccccc3)s2)ccc1OCC1CC1 [Example 265, 4-(cyclopropylmethoxy)-3-{[(4-cyclopropylpiperazin-1-yl)acetyl]amino}-N-(5-phenyl-1,3,4-thiadiazol-2-yl)benzamide]
		120	≥ 50000	CC(C(=O)Nc1cc(C(=O)Nc2ccc(-c3cccc(F)c3)nc2)ccc1OC(F)(F)F)N1C[C@@H]2C[C@H]1CO2 (relative stereo) [Example 244, N-[6-(3-fluorophenyl)pyridin-3-yl]-3-({(2S*)-2-[(1S,4S)-2-oxa-5-azabicyclo[2.2.1]hept-5-yl]propanoyl}amino)-4-(trifluoromethoxy)benzamide]
360	≥ 50000			O=C(Nc1nnc(-c2ccccc2)s1)c1ccc(OCc2ccccc2)c(NC(=O)C2(N3CCOCC3)CC2)c1 [Example 92, 4-(benzyloxy)-3-({[1-(morpholin-4-yl)cyclopropyl]carbonyl}amino)-N-(5-phenyl-1,3,4-thiadiazol-2-yl)benzamide]
208	29900			CC(C(=O)Nc1cc(C(=O)Nc2ccc(-c3ccc(O)cc3F)nc2)ccc1OC(F)(F)F)N1CCOCC1 (centres unmarked) [Example 109, N-[6-(2-fluoro-4-hydroxyphenyl)pyridin-3-yl]-3-{[2-(morpholin-4-yl)propanoyl]amino}-4-(trifluoromethoxy)benzamide]
150	≥ 50000			CSc1ccc(C(=O)Nc2ccc(-c3ccccc3F)nc2)cc1NC(=O)CN1CCOCC1 [Example 138, N-[6-(2-fluorophenyl)pyridin-3-yl]-4-(methylsulfanyl)-3-[(morpholin-4-ylacetyl)amino]benzamide]
444	9900			CC(C)(C)c1ccc(NC(=O)c2ccc(-c3ccccc3)nc2)cc1NC(=O)CN1CCOCC1 [Example 18, N-{4-tert-butyl-3-[(morpholin-4-ylacetyl)amino]phenyl}-6-phenylnicotinamide]
2550	≥ 50000			COc1ccc(C(=O)Nc2ccc(-c3ccccc3F)nc2)cc1NC(=O)C1(N2CCOCC2)CCC1 [Example 82, N-[6-(2-fluorophenyl)pyridin-3-yl]-4-methoxy-3-({[1-(morpholin-4-yl)cyclobutyl]carbonyl}amino)benzamide]
57	≥ 50000			C[C@H]1CN(CC(=O)Nc2cc(C(=O)Nc3ccc(-c4ccccc4F)nc3)ccc2OC(F)(F)F)CCN1C [Example 163, 3-({[(3S)-3,4-dimethylpiperazin-1-yl]acetyl}amino)-N-[6-(2-fluorophenyl)pyridin-3-yl]-4-(trifluoromethoxy)benzamide]
935	9300			O=C(CN1CCOCC1)Nc1cc(C(=O)Nc2nnc(-c3ccc(F)cc3)s2)ccc1OC(F)(F)F [Example 99, N-[5-(4-fluorophenyl)-1,3,4-thiadiazol-2-yl]-3-[(morpholin-4-ylacetyl)amino]-4-(trifluoromethoxy)benzamide]
238	17100			CC(C(=O)Nc1cc(C(=O)Nc2ccc(-c3cc(F)cc(F)c3)nc2)ccc1OC(F)(F)F)N1C[C@@H]2C[C@H]1CO2 (stereo partly drawn) [Example 223, N-[6-(3,5-difluorophenyl)pyridin-3-yl]-3-({2-[(1S,4S)-2-oxa-5-azabicyclo[2.2.1]hept-5-yl]propanoyl}amino)-4-(trifluoromethoxy)benzamide]
51	7200			CC1CN(C)CCN1CC(=O)Nc1cc(C(=O)Nc2ccc(-c3ccccc3F)nc2)ccc1OC(F)(F)F (centres unmarked) [Example 165, 3-{[(2,4-dimethylpiperazin-1-yl)acetyl]amino}-N-[6-(2-fluorophenyl)pyridin-3-yl]-4-(trifluoromethoxy)benzamide]
3800	≥ 50000			CN1CCN(CC(=O)Nc2cc(C(=O)Nc3nnc(-c4ccccc4)s3)ccc2C#N)CC1 [Example 174, 4-cyano-3-{[(4-methylpiperazin-1-yl)acetyl]amino}-N-(5-phenyl-1,3,4-thiadiazol-2-yl)benzamide]
222	≥ 50000			CC(C(=O)Nc1cc(C(=O)Nc2ccc(-c3ccc(O)cc3)nc2)ccc1OC(F)(F)F)N1CCOCC1 (centres unmarked) [Example 195, N-[6-(4-hydroxyphenyl)pyridin-3-yl]-3-{[2-(morpholin-4-yl)propanoyl]amino}-4-(trifluoromethoxy)benzamide]
		87	9500	CC(C(=O)Nc1cc(NC(=O)c2ccc(-c3cccc(F)c3)nc2)ccc1OC(F)(F)F)N1CCOCC1 (centres unmarked) [Example 190, 6-(3-fluorophenyl)-N-[3-{[2-(morpholin-4-yl)propanoyl]amino}-4-(trifluoromethoxy)phenyl] nicotinamide]
		235	12200	CC(C(=O)Nc1cc(C(=O)Nc2ccc(-c3cc(F)cc(F)c3)nc2)ccc1OC(F)(F)F)N1CCOCC1 (centres unmarked) [Example 221, N-[6-(3,5-difluorophenyl)pyridin-3-yl]-3-{[2-(morpholin-4-yl)propanoyl]amino}-4-(trifluoromethoxy)benzamide]
1200	22000			COc1ccc(NC(=O)c2ccc(-c3ccc(F)cc3)s2)cc1NC(=O)CN1CCOCC1 [Example 36, 5-(4-fluorophenyl)-N-{4-methoxy-3-[(morpholin-4-ylacetyl)amino]phenyl}thiophene-2-carboxamide]
		200	5800	CC(C(=O)Nc1cc(NC(=O)c2ccc(-c3cc(F)cc(F)c3)nc2)ccc1OC(F)(F)F)N1CC2CCC(C1)O2 (centres unmarked) [Example 202, 6-(3,5-difluorophenyl)-N-[3-{[2-(8-oxa-3-azabicyclo[3.2.1]oct-3-yl)propanoyl]amino}-4-(trifluoromethoxy)phenyl] nicotinamide]

Structure (SMILES)	IC50 ([1]; Homo sapiens, HCT-116, 36 h) [nM]	IC50 ([2]; Homo sapiens, HCT-116, 36 h) [nM]	IC50 [1] [nM]	IC50 [2] [nM]
CN1CCN(CC(=O)Nc2cc(C(=O)Nc3ccc(-c4ccccc4)cn3)ccc2OC(F)(F)F)CC1 [Example 158, 3-{[(4-methylpiperazin-1-yl)acetyl]amino}-N-(5-phenylpyridin-2-yl)-4-(trifluoromethoxy)benzamide]	73.6	21800		
CC(C(=O)Nc1cc(C(=O)Nc2nnc(-c3ccccc3)s2)ccc1CS(C)(=O)=O)N1CCN(C)CC1 (centres unmarked) [Example 231, 3-{[2-(4-methylpiperazin-1-yl)propanoyl]amino}-4-[(methylsulfonyl)methyl]-N-(5-phenyl-1,3,4-thiadiazol-2-yl)benzamide]		≥ 50000	1020	
CC(C(=O)Nc1cc(C(=O)Nc2nnc(-c3ccccc3)s2)ccc1CS(C)(=O)=O)N1CCN(C)CC1 (centres unmarked) [Example 88, 3-{[2-(4-methylpiperazin-1-yl)propanoyl]amino}-4-[(methylsulfonyl)methyl]-N-(5-phenyl-1,3,4-thiadiazol-2-yl)benzamide]			417	≥ 50000
